# Test results as given in patent US11208410B2, “Heterocycle-bound condensed heterocyclic compound or salt thereof, agricultural and horticultural insecticide comprising the compound, and method for using the insecticide” (Nihon Nohyaku Co., Ltd., priority 2016, dated 2021).
# Columns and labels:
# Laodelphax striatella = assay: Insecticidal test on Laodelphax striatella (rice seedling dip); assay type: in vivo; details: Laodelphax striatellus, 192 h, rice seedlings dipped 30 seconds, 3rd-instar larvae, 8 days after inoculation, read-out: insecticidal effect (corrected mortality rate), activity level
# Text: Insecticidal test on Laodelphax striatella
# The heterocycle-bound condensed heterocyclic compounds represented by the general formula (1) of the present invention or salts thereof were separately dispersed in water and diluted to 500 ppm. Rice plant seedlings (variety: Nihonbare) were dipped in the agrochemical dispersions for 30 seconds. After air-dried, each seedling was put into a separate glass test tube and inoculated with ten 3rd-instar larvae of Laodelphax striatella, and then the glass test tubes were capped with cotton plugs. At 8 days after the inoculation, the numbers of surviving larvae and dead larvae were counted, the corrected mortality rate was calculated according to the formula shown below, and the insecticidal effect was evaluated according to the criteria shown below. Corrected mortality rate (%)=100×(Survival rate in a non-treatment plot−Survival rate in a treatment plot)/Survival rate in a non-treatment plot [Math. 2] Criteria A: the corrected mortality rate is 100%. B: the corrected mortality rate is 90 to 99%. C: the corrected mortality rate is 80 to 89%. D: the corrected mortality rate is 50 to 79%.
# Plutella xylostella = assay: Insecticidal test on Plutella xylostella (dip of Chinese cabbage seedlings with laid eggs); assay type: in vivo; details: 144 h, seedlings with laid eggs dipped about 30 seconds, 25° C., 6 days after dip treatment, read-out: insecticidal effect (corrected mortality rate), activity level
# Text: Insecticidal Test on Plutella xylostella
# Adults of Plutella xylostella were released onto Chinese cabbage seedlings and allowed to lay eggs thereon. At 2 days after the release of the adults, the Chinese cabbage seedlings with laid eggs were dipped for about 30 seconds in agrochemical dispersions diluted to 500 ppm, each of which contained a different kind of heterocycle-bound condensed heterocyclic compound represented by the general formula (1) of the present invention as an active ingredient. After air-dried, the seedlings were kept in a thermostatic chamber at 25° C. At 6 days after the dip treatment, the number of hatched larvae per plot was counted, the mortality rate was calculated according to the formula shown below, and the insecticidal effect was evaluated according to the criteria of Test Example 2. This test was conducted in triplicate using 10 adults of Plutella xylostella per plot. Corrected mortality rate (%)=100×(Number of hatched larvae in a non-treatment plot−Number of hatched larvae in a treatment plot)/Number of hatched larvae in a non-treatment plot [Math. 3]
Compound,mortality at 500 ppm (Laodelphax striatella),mortality at 500 ppm (Plutella xylostella)
"CCS(=O)(=O)c1cc(-c2noc(C(F)(F)F)n2)cnc1-c1nc2cc(C(F)(F)C(F)(F)F)nnc2n1C [Compound 1-41, 3-{2-(3-Methyl-6-pentafluoroethyl-3H-imidazo[4,5-C]pyridazin-2-yl)-3-(ethylsulfonyl)pyridin-5-yl}-5-trifluoromethyl-1,2,4-oxadiazole]",100%,100%
"CCS(=O)(=O)c1cc(-c2nc(-c3ccccc3)no2)cnc1-c1nc2cc(C(F)(F)C(F)(F)F)nnc2n1C [Compound 2-56, 5-{2-(3-Methyl-6-pentafluoroethyl-3H-imidazo[4,5-C]pyridazin-2-yl)-3-(ethylsulfonyl)pyridin-5-yl}-3-phenyl-1,2,4-oxadiazole]",100%,100%
